# In patent publication US10639301B2 (Commissariat a L'Energie Atomique et Aux Energies …, priority 2013, dated 2020):
# “Also recorded” adds a separate entry of the source.
# Columns and labels:
# narcoleptic Ox-/- mice [1] = assay: DREM cataplectic-like episodes in narcoleptic orexin knockout mice; format: in vivo; conditions: oral
# [2] = poor metabolizers (PM) of sparteine/debrisoquine, 50 mg racemic flecainide acetate (Gross et al, 1989); cited from earlier work
# mice [3] = assay: T-maze alternating sequential test (spatial working memory); format: in vivo; conditions: intraperitoneal
# Description: The alternating sequential test is widely used to assess spatial working memory in mice (Beracochea & Jaffard, 1987). Spontaneous alternation is the innate tendency of rodents to alternate their choices to entry into the compartments of arrival of a T-maze device, over successive trials. To alternate during a given trial N, the animal must remember the choice made selectively in test N−1, so the decline in alternating will reflect the phenomenon of oblivion. The response in alternating is performance measure. Sequential alternating assesses more specifically the sensitivity to interference, a major factor in oblivion.
# The experiment takes place in a T-maze (50 cm×10 cm×25 cm). All the subjects were given 7 successive trials separated by a 120-s intertrial interval. To begin a trial, the mouse was placed in the start box for 120 s before the door to the stem was opened. When the subject entered one of the goal arms, the door to that arm was closed. The chosen arm and the time that elapsed between opening the door and the arrival to the end of the chosen arm (task achievement time) were registered. Following a 30-s confinement period (fixed and invariant) in the chosen arm, the animal was removed and placed in the start box for a new trial. Between each test, the unit is cleaned with a cloth soaked in water and alcohol to avoid olfactory detection. […]
# RIN cells = assay: Toxicity analysis, cell viability by WST-1; format: cell-based, rat; conditions: RIN cells treated 4 hours, grown 24 h; at the dose inhibiting cerebral connexins
# Description: Twenty thousand RIN were seeded in 100 μl of culture medium in 96-wells plates. After 48 h culture, cells were treated for 4 hours with previously identified chemical compounds at several concentrations. Cells were rinsed in PBS and grown 24 h in fresh medium. Cell viability was measured by using WST-1 (Roche).
# Cx32 = biological target: T1, Cx32 (Homo sapiens, UniProt P08034); assay: Dye transfer (cell-parachute) gap junction assay, Rin-Cx32 cells; format: cell-based; conditions: flecainide racemate 70, 140 or 280 μM, 4 hours, flow cytometry
# T1 construct: expressed in transfected cells; host or cells: rat insulinoma RIN cell line (Rin-Cx32), pcDNA3.1/V5-His-TOPO, geneticin-selected
# Description: (§1) The rat insulinoma RIN cell line, deficient in GJIC (del Corsso et al, 2006), was grown in OptiMem medium, supplemented with 10% fetal calf serum. GJB6 (Cx30), GJB1 (Cx32), GJB2 (Cx26), GJA5 (Cx40) and GJA1 (Cx43) open reading frames were amplified from human cDNA. The open reading frames were cloned in pcDNA3.1/V5-His-TOPO (Invitrogen). Cells were transfected using Lipofectamine and further selected using geneticin.
# (§2) Cells were seeded and loaded with two fluorochromes, calcein acetoxymethyl ester, a gap junction permeable dye, and Vybrant Dil, a membrane lipophilic dye. […] Flow cytometry was conducted on a FACScan. Inhibition was quantified as the relative number of receiver cells that gained fluorescence to the total number of receiver cells (non GJ-mediated dye transfer was then substracted to these ratio based on connexin non-expressing RIN cells, defined at background dye transfer ratio). This ratio of cellular coupling was then normalized, after each treatment, on the vehicle one.
# [4] = tested on: cardiac myocyte cell pairs; conditions: cardiac myocyte cell pairs (Daleau et al, 1998); cited from earlier work
# Cx26 = biological target: T2, Cx26 (Homo sapiens, UniProt P29033); assay: Dye transfer (cell-parachute) gap junction assay, Rin-Cx26 cells; format: cell-based; conditions: flecainide racemate 70, 140 or 280 μM, 4 hours, flow cytometry
# T2 construct: expressed in transfected cells; host or cells: rat insulinoma RIN cell line (Rin-Cx26), pcDNA3.1/V5-His-TOPO, geneticin-selected
# Description: as §1, §2
# Cx40 = biological target: T3, Cx40 (Homo sapiens, UniProt P36382); assay: Dye transfer (cell-parachute) gap junction assay, Rin-Cx40 cells; format: cell-based; conditions: flecainide racemate 70, 140 or 280 μM, 4 hours, flow cytometry
# T3 construct: expressed in transfected cells; host or cells: rat insulinoma RIN cell line (Rin-Cx40), pcDNA3.1/V5-His-TOPO, geneticin-selected
# Description: as §1, §2
# [5] = tested on: Wild-type C57bl/6 male mice; assay: Wake duration by polysomnographic analysis; format: in vivo; conditions: oral
# Description: Wild-type C57bl/6 male mice (n=9/groups) were implanted with EEG/EMG/EOG electrodes for polysomnographic analyses. […] Here the inventors represented the duration of wake during the first three hours (after a one-hour period post-administration). **: p<0.01 in a One-Way ANOVA analysis.
# mice [6] = assay: Locomotor activity by video tracking; format: in vivo; conditions: oral
# Description: Locomotor activity is evaluated by video tracking. Videos have been analyzed using Ethovision XT software (Noldus®).*: p<0.01 in a Two-Way ANOVA analysis
# Cx43 = biological target: T4, Cx43 (Homo sapiens, UniProt P17302); assay: Dye transfer (cell-parachute) gap junction assay, Rin-Cx43 cells; format: cell-based; conditions: flecainide racemate 70, 140 or 280 μM, 4 hours, flow cytometry
# T4 construct: expressed in transfected cells; host or cells: rat insulinoma RIN cell line (Rin-Cx43), pcDNA3.1/V5-His-TOPO, geneticin-selected
# Description: as §1, §2
# Cx30 = biological target: T5, Cx30 (Homo sapiens, UniProt O95452); assay: Dye transfer (cell-parachute) gap junction assay, Rin-Cx30 cells; format: cell-based; conditions: flecainide racemate 70, 140 or 280 μM, 4 hours, flow cytometry
# T5 construct: expressed in transfected cells; host or cells: rat insulinoma RIN cell line (Rin-Cx30), pcDNA3.1/V5-His-TOPO, geneticin-selected
# Description: as §1, §2
# narcoleptic Ox-/- mice [7] = conditions: orexin KO mouse model, literature; cited from earlier work
# [8] = flecainide racemate 1 mg/kg alone
# T5 sequence (O95452 whole entry): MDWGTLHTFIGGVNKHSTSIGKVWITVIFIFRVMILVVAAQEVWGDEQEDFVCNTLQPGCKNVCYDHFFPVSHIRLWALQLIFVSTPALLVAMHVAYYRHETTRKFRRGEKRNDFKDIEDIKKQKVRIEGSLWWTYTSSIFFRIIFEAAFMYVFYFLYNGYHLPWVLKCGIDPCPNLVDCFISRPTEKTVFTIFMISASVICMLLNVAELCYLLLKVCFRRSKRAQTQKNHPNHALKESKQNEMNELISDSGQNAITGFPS
# T4 sequence (P17302 2-382 limits assumed): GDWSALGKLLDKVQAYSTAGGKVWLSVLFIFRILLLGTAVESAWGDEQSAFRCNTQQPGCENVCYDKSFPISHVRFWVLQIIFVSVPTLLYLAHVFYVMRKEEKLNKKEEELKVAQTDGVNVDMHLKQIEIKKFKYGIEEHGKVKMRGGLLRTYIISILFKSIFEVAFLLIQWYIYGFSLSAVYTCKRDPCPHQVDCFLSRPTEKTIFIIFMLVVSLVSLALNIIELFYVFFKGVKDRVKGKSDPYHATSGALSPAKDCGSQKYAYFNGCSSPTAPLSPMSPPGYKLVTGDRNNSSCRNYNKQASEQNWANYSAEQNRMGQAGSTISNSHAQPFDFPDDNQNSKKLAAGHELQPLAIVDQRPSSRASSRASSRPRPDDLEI
# T3 sequence (P36382 whole entry): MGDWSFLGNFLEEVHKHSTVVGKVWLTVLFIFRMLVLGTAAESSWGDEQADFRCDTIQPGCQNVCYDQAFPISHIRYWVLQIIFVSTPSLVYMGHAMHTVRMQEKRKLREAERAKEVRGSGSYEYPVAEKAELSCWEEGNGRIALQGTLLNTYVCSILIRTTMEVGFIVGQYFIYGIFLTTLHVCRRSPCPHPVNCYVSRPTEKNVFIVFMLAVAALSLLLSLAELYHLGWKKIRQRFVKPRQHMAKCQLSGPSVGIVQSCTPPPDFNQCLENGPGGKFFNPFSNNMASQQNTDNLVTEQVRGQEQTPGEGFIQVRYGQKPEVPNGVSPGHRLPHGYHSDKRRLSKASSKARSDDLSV
# T1 sequence (P08034 whole entry): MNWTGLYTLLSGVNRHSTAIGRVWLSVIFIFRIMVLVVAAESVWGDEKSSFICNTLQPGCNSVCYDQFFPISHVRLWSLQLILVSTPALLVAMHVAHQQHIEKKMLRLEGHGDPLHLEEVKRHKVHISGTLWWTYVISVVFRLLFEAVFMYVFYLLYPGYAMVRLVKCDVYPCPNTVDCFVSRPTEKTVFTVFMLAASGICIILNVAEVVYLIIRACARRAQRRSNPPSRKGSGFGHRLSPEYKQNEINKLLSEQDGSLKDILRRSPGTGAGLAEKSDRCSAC
structure (smiles),measurement,setting,value
"O=C(NC[C@H]1CCCCN1)c1cc(OCC(F)(F)F)ccc1OCC(F)(F)F [R-flecainide, (R)—N-(piperidin-2-ylmethyl)-2,5-bis(2,2,2-trifluoroethoxy)benzamide]","DREM cataplectic-like phenotype, flecainide enantiomer combined with modafinil","narcoleptic Ox-/- mice [1]; modafinil 64 mg/kg + enantiomer 1 mg/kg, R- compared with S-flecainide",more efficient
same,half-life,[2],12.9 h
same,urinary recovery,[2],15.6 ± 3.7 mg
"O=C(NCC1CCCCN1)c1cc(OCC(F)(F)F)ccc1OCC(F)(F)F (racemic) [flecainide, N-(piperidin-2-ylmethyl)-2,5-bis(2,2,2-trifluoroethoxy) benzamide]","Cognitive (promnesiant) effect, flecainide alone",mice [3]; [8],no own cognitive effect
same,Promnesiant activity of modafinil (percentage of alternation) with flecainide added,mice [3]; modafinil 64 mg/kg + flecainide racemate 1 mg/kg,significantly potentiates
same,Cell viability (WST-1),RIN cells,no cell toxicity
same,Inhibition of gap junction dye transfer (cellular coupling),Cx32,inhibits all the tested isoforms
same,Influence on junctional resistance,[4],not to influence
same,"DREM cataplectic-like phenotype, flecainide alone",narcoleptic Ox-/- mice [1]; [8],no effect
same,Inhibition of gap junction dye transfer (cellular coupling),Cx26,inhibits all the tested isoforms; also recorded: higher inhibition levels
same,Inhibition of gap junction dye transfer (cellular coupling),Cx40,inhibits all the tested isoforms
same,"Wake duration, flecainide alone",[5]; flecainide 1 mg/kg alone,devoid of own effect on wake duration
same,Waking effect of modafinil (wake duration) with flecainide added,"[5]; modafinil 32 mg/kg + flecainide racemate 1 mg/kg, first three hours after one-hour period",significantly increases
same,"Locomotor effect, flecainide alone",mice [6]; [8],devoid of any own locomotor effect
same,Duration of effect of modafinil on locomotor activity with flecainide added,mice [6]; modafinil 64 mg/kg + flecainide 1 mg/kg,significantly increases the duration of effect of modafinil
same,Inhibition of gap junction dye transfer (cellular coupling),Cx43,inhibits all the tested isoforms; also recorded: higher inhibition levels
same,Inhibition of gap junction dye transfer (cellular coupling),Cx30,inhibits all the tested isoforms; also recorded: higher inhibition levels
"NC(=O)C[S+]([O-])C(c1ccccc1)c1ccccc1 (stereo not drawn) [modafinil, 2-[(diphenylmethyl)sulfinyl] acetamide]","DREM cataplectic-like phenotype, modafinil alone",narcoleptic Ox-/- mice [1]; modafinil 64 mg/kg alone,do not have any significant effect
same,"DREM episodes under modafinil (Lin et al, 2008)",narcoleptic Ox-/- mice [7],allows DREM episodes to persist
"O=C(NC[C@@H]1CCCCN1)c1cc(OCC(F)(F)F)ccc1OCC(F)(F)F [S-flecainide, (S)—N-(piperidin-2-ylmethyl)-2,5-bis(2,2,2-trifluoroethoxy)benzamide]",half-life,[2],9.8 h
same,urinary recovery,[2],12.0 ± 3.7 mg
